Laboratory results as given in patent publication US7494980B2, “Antimicrobial peptide and methods of use thereof” (The United States of America as represented by the …, priority 2003, dated 2009).

Tested on: saliva bacteria (facultative anaerobic oral bacteria collected from saliva)
Experiment: In vitro killing of saliva bacteria
Format: cell-based
Details: 0.5 h; chlorhexidine 0.12%, positive control; data not shown; read-out: log reduction in facultative anaerobic saliva organisms
Experimental: The killing assay of saliva bacteria was done according to procedures established by Helmerhorst et al. (1999). Unstimulated saliva was collected from four healthy individuals who had refrained from eating for at least 2 hours. The study was approved by the Institutional Review Board of the Walter Reed Army Institute of Research and informed consent and sample donation consent were obtained from all volunteers. Pooled saliva was initially spun at 500 r.p.m. in an Eppendorf centrifuge (model 5810R) for 10 min at 4° C. to remove epithelial cells and mucus. Saliva bacteria were collected by spinning the supernatant at 4000 r.p.m. for 15 min at 4° C. The pellet was washed three times in 10 mM potassium phosphate buffer (PPB) and suspended in the same buffer to give approximately 1.0×10^7 cells ml^−1. Bacterial suspension (250 μl) was mixed with 250 μl peptide to obtain final peptide concentrations of 12.5, 25, 50, 100 and 200 μg ml^−1. After incubation of the mixture at 37° C. for 30 min, cells were spun down to remove KSL, washed once in PBS having a pH of 7.4 and suspended in PBS before spiral-plating 50 μl of the treated and untreated cells in different dilutions on BAP. The negative control was exposed to buffer only. Saliva bacteria exposed to 0.12% aqueous chlorhexidine served as positive controls. […]

For `[H]/N=C(\N/C(=N/[H])NCCCCCCNC(=N)NC(=N)Nc1ccc(Cl)cc1)Nc1ccc(Cl)cc1` [chlorhexidine, reference compound], the log reduction at 0.12 % was greater than 3.
